The values that follow come from PubChem BioAssay (NCI).

Values joined by “and” are separate entries in the source; they are usually repeats but may differ in a detail not shown here. Equal values may be shown once.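 1) Cells in 96-well plates. 2) Compound, 48 h, 5 concentrations. 3) Linear interpolation between surrounding doses. 4) Unreached endpoint = highest concentration. GI50: concentration for 50% inhibition of growth. The concentration for full growth arrest is given as TGI.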

Among the test systems are HCC-2998 colon; SN12C renal; HOP-62 NSCLC; MDA-MB-435; SK-MEL-5 melanoma; UO-31 renal; A549 NSCLC; HL-60(TB) leukemia; HT29 colon; TK-10 renal.
Holding throughout (assay): DTP human tumour cell line panel, 48 h

In the case of `O=C1NC(=S)NC(=O)C1=Cc1cccc2cc3ccccc3cc12`, the TGI is 3.89 µM with HCC-2998 colon; 4.9 µM in the assay with SN12C renal; 4.16 µM with HOP-62 NSCLC; 4.65 µM with MDA-MB-435; 5.23 µM in the assay on SK-MEL-5 melanoma; 3.94 µM in the assay with UO-31 renal. Moreover, the TGI in the assay with A549 NSCLC was found to be 12.7 µM; in the assay with HL-60(TB) leukemia it was 5.67 µM; with HT29 colon, 3.74 µM; in the assay on TK-10 renal it was 3.48 µM.

`CC1=C2C[C@H]3[C@@H](CC=C4C[C@@H](O)CC[C@@]43C)[C@@H]2CC[C@]12O[C@@H]1C[C@H](C)CN[C@H]1[C@H]2C`: the GI50 is 16.9 µM and 21.6 µM with HCC-2998 colon; 25.6 µM and 18.3 µM in the assay on SN12C renal; 17.8 µM and 24.5 µM with HOP-62 NSCLC; > 50 µM and 17.2 µM in the assay with MDA-MB-435; > 50 µM and 21.7 µM in the assay on SK-MEL-5 melanoma; 11.5 µM and 19 µM in the assay on UO-31 renal. In addition, the GI50 was 16.8 µM and 17.5 µM in the assay on A549 NSCLC; 11.5 µM and 15.7 µM in the assay with HL-60(TB) leukemia; 26.2 µM in the assay with HT29 colon; 7.17 µM and 14.2 µM in the assay with TK-10 renal. The total growth inhibition concentration (TGI) in the assay with HCC-2998 colon was 50 µM and 39.4 µM; in the assay on SN12C renal, 50 µM and 47.4 µM; with HOP-62 NSCLC, 50 µM and 68.6 µM; in the assay with MDA-MB-435, > 50 µM and 42.1 µM; with SK-MEL-5 melanoma, > 50 µM and 53.5 µM; with UO-31 renal, 35.9 µM and 37.2 µM. For the same compound, the TGI in the assay on A549 NSCLC was 50 µM and 39.4 µM; with HL-60(TB) leukemia, 50 µM and 55.1 µM; with HT29 colon it was 50 µM; in the assay with TK-10 renal, 25.9 µM and 34.1 µM.

For `COc1cccc(-c2nc3sccn3c2-c2ccnc(NCCNS(=O)(=O)c3ccccc3)c2)c1`, the GI50 in the assay with HCC-2998 colon was 6.23 µM; with SN12C renal, 2.91 µM; with HOP-62 NSCLC, 4.24 µM; in the assay with MDA-MB-435, 3.1 µM; in the assay with SK-MEL-5 melanoma it was 1.53 µM; in the assay with UO-31 renal, 0.59 µM. Also, the GI50 in the assay with A549 NSCLC was 2.68 µM; in the assay on HL-60(TB) leukemia it was 1.71 µM; with HT29 colon it was 2.37 µM; in the assay on TK-10 renal, 3.58 µM. Besides, the concentration for total growth inhibition (TGI) in the assay with HCC-2998 colon is above 100 µM; in the assay with SN12C renal, above 100 µM; in the assay with HOP-62 NSCLC, 67.1 µM; in the assay on MDA-MB-435, above 100 µM; in the assay on SK-MEL-5 melanoma it was 4.89 µM; in the assay with UO-31 renal, 6.65 µM. Moreover, the concentration for total growth inhibition (TGI) in the assay with A549 NSCLC is above 100 µM; in the assay on HL-60(TB) leukemia, 5.56 µM; with HT29 colon, 34.3 µM; in the assay on TK-10 renal it was 57.2 µM.

For `COC(=O)c1c2c(c(C)[n+]([O-])c1C)C(=O)C=C(NCc1ccc(OC)cc1)C2=O`, the GI50 in the assay on HCC-2998 colon is 1.54 µM; with SN12C renal, 1.69 µM; in the assay on HOP-62 NSCLC it was 2.48 µM; with MDA-MB-435 it was 0.598 µM; in the assay on SK-MEL-5 melanoma, 0.607 µM; with UO-31 renal it was 2.2 µM. For the same compound, the GI50 with A549 NSCLC is 2.21 µM; in the assay on HL-60(TB) leukemia, 0.794 µM; with HT29 colon, 1.2 µM; in the assay with TK-10 renal, 8.3 µM. The TGI in the assay with HCC-2998 colon stood at 4.78 µM; with SN12C renal, 4.3 µM; with HOP-62 NSCLC, 7.84 µM; with MDA-MB-435 it was 1.15 µM; in the assay with SK-MEL-5 melanoma, 1.21 µM; in the assay with UO-31 renal it was 6.83 µM. The total growth inhibition concentration (TGI) was 6.44 µM with A549 NSCLC, 2.21 µM with HL-60(TB) leukemia, above 36.7 µM in the assay on HT29 colon and 25.8 µM in the assay with TK-10 renal.

For `COc1ccc(-c2nc3ncccn3c2/C=C/C(=O)c2cc(OC)c(OC)c(OC)c2)cc1`, the GI50 is 1.58 µM with HCC-2998 colon; 2.56 µM in the assay with SN12C renal; 2.83 µM in the assay on HOP-62 NSCLC; 2.28 µM with MDA-MB-435; 1.52 µM with SK-MEL-5 melanoma; 0.514 µM in the assay with UO-31 renal. In addition, the GI50 with A549 NSCLC was 2.71 µM; with HL-60(TB) leukemia, 2.52 µM; in the assay with HT29 colon, 2.19 µM; in the assay on TK-10 renal it was 2.88 µM. In addition, the total growth inhibition concentration (TGI) was 2.92 µM with HCC-2998 colon; 35.1 µM with SN12C renal; 10.3 µM with HOP-62 NSCLC; 10.6 µM with MDA-MB-435; 2.87 µM in the assay with SK-MEL-5 melanoma; 4.17 µM in the assay with UO-31 renal. For the same compound, the TGI in the assay with A549 NSCLC was above 100 µM; in the assay with HL-60(TB) leukemia, above 100 µM; with HT29 colon it was 4.38 µM; with TK-10 renal, 10.4 µM.

As to `COc1c(Cl)c2c(c(OC)c1OC)-c1ccc(SC)c(=O)cc1[C@@H](NC(=O)OCC(F)(F)F)CC2`, the GI50 in the assay on HCC-2998 colon, in the assay with SN12C renal, in the assay with HOP-62 NSCLC, in the assay on MDA-MB-435, with SK-MEL-5 melanoma and in the assay on A549 NSCLC was below 0.01 µM throughout. Further, the GI50 is below 0.01 µM in the assay on HL-60(TB) leukemia, below 0.01 µM in the assay on HT29 colon and 6.11 µM in the assay with TK-10 renal. Further, the TGI in the assay with HCC-2998 colon was 3.99 µM; in the assay with SN12C renal, above 100 µM; in the assay on HOP-62 NSCLC, above 100 µM; with MDA-MB-435, below 0.01 µM; with SK-MEL-5 melanoma it was 0.0184 µM; with UO-31 renal, above 61.9 µM. In addition, the TGI with A549 NSCLC was above 100 µM; with HL-60(TB) leukemia, below 0.01 µM; in the assay with HT29 colon it was 23.8 µM; in the assay on TK-10 renal, above 100 µM.

Take `O=[N+]([O-])c1ccc(N=Nc2c(O)ccc3ccccc23)cc1`: the concentration for total growth inhibition (TGI) with HCC-2998 colon was above 100 µM; in the assay with SN12C renal, above 100 µM; in the assay with HOP-62 NSCLC it was 37.4 µM and > 100 µM; in the assay with MDA-MB-435 it was above 100 µM; in the assay on SK-MEL-5 melanoma, above 100 µM; in the assay with UO-31 renal, above 100 µM. Further, the TGI in the assay with A549 NSCLC, in the assay on HL-60(TB) leukemia, in the assay on HT29 colon and with TK-10 renal was above 100 µM each time. In addition, the GI50 with HOP-62 NSCLC was 14.5 µM and > 100 µM; in the assay with A549 NSCLC, 28.2 µM and > 100 µM; in the assay on HL-60(TB) leukemia it was 38.4 µM and > 100 µM; in the assay on HT29 colon, 35.8 µM and > 100 µM; in the assay with TK-10 renal, 28 µM and > 100 µM.

In the case of `Cc1cc(I)cc(CN(C)CCN2CCCC2)c1O`, the GI50 with HCC-2998 colon was 16 µM; with SN12C renal, 41.3 µM; in the assay on HOP-62 NSCLC, 24.1 µM; with MDA-MB-435, 18.3 µM; with SK-MEL-5 melanoma, 20.2 µM; with UO-31 renal, 28.7 µM. For the same compound, the GI50 in the assay on A549 NSCLC is 37.9 µM; in the assay with HL-60(TB) leukemia, 10.9 µM; in the assay with HT29 colon, 17.3 µM; in the assay on TK-10 renal, 18.6 µM. Besides, the total growth inhibition concentration (TGI) in the assay on HCC-2998 colon is 35.9 µM; in the assay on SN12C renal it was above 100 µM; in the assay on HOP-62 NSCLC it was 87.5 µM; in the assay with MDA-MB-435, 42.4 µM; in the assay with SK-MEL-5 melanoma it was 34.8 µM; in the assay on UO-31 renal, above 88.9 µM. In addition, the TGI is above 100 µM in the assay on A549 NSCLC, 34.2 µM in the assay with HL-60(TB) leukemia, 35.5 µM in the assay on HT29 colon and 39.3 µM with TK-10 renal.
